# US6649626B1, “N-substituted 1-(lactone) isoquinolones for treating nervous disorders” (Centre National de la Recherche Scientifique (CNRS), priority 1999, dated 2003)
# Key:
# [1] = target: T1, α1β2γ2 subtype of the GABA receptor (Rattus norvegicus, UniProt P18508+P62813+P63138); experiment: Electrophysiology: modulation of GABA currents in Xenopus oocytes expressing recombinant GABA-A receptors; assay type: cell-based; conditions: for % stimulation of the GABA currents / % stimulation of the GABA currents (100 μM): α1β2γ2 in oocytes; for % stimulation of the GABA currents (100 μM): 100 μM compound with GABA
# T1 construct: expressed in transfected cells; host or cells: Xenopus laevis oocytes (cRNA injection)
# T1 sequence (P62813 28-455): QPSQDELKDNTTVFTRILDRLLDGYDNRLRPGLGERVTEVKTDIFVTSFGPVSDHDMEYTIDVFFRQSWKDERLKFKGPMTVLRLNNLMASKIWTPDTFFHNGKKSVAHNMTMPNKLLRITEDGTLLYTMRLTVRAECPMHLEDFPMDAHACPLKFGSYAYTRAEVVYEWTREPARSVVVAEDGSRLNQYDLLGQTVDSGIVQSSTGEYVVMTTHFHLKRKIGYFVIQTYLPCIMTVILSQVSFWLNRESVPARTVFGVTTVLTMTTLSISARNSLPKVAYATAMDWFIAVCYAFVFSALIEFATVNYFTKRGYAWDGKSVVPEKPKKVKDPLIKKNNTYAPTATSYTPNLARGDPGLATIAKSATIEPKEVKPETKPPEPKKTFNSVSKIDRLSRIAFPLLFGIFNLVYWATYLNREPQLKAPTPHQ
# T1 sequence (P63138 25-474 limits assumed): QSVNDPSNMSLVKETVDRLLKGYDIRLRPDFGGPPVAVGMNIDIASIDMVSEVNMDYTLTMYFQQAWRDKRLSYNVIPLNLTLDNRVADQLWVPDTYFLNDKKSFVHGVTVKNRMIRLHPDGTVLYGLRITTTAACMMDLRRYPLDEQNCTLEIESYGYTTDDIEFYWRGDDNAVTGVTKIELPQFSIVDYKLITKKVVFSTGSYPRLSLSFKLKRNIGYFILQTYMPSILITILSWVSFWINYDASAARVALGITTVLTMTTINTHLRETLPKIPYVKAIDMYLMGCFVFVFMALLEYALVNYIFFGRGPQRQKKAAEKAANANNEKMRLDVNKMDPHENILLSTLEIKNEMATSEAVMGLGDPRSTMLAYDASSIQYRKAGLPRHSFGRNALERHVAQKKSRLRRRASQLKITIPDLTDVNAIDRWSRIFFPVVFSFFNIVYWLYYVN
# T1 sequence (P18508 39-466): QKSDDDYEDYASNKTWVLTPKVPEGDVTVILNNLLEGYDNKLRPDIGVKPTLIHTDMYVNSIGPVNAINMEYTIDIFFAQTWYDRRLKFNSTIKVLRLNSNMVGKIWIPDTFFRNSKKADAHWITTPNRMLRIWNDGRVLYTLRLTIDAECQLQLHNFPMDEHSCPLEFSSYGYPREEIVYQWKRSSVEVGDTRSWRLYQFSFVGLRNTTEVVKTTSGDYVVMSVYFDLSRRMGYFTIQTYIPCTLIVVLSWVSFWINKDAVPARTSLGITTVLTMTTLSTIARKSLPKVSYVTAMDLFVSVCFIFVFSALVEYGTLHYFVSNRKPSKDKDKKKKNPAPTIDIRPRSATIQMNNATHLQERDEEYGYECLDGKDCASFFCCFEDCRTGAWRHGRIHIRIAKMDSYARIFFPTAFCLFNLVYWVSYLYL
# [2] = target: T2, benzodiazepine-binding site of the GABA-A receptor (Rattus norvegicus, UniProt P18508+P62813); experiment: Displacement of tritiated flunitrazepam from brain membranes; conditions: for inhibition at 100 µM: read-out: Inhibition of the tritiated ligands % Flu (100 μM)
# T2 construct: IC50 Flu / BZ receptor; other: cerebellum (ce); other: cerebellum (ce; BZ1 subtype); other: 10 μM; cerebellum; other: 100 μM; other: 0.5 μM
# T2 sequence (P62813 28-455): as the sequence (P62813 28-455) above
# T2 sequence (P18508 39-466): as the sequence (P18508 39-466) above
# T2 sequence (P63138 26-474 partner): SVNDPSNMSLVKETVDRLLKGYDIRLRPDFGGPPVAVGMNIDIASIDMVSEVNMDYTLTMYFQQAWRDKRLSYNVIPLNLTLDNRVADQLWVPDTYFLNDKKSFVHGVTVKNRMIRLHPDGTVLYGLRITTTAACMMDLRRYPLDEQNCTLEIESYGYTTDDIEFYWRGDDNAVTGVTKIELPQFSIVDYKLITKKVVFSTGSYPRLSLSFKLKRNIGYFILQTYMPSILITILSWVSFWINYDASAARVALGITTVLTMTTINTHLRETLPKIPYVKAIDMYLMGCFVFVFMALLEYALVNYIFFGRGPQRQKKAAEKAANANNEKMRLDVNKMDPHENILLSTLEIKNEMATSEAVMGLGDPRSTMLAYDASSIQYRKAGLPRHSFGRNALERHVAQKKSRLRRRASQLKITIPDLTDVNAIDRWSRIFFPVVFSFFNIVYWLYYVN
# [3] = tested on: Ro15-4513 binding (GABA-A receptor); experiment: Ro15-4513 displacement; conditions: 100 μM
# [4] = tested on: GABA-binding site of the GABA-A receptor; experiment: Displacement of tritiated muscimol from brain membranes; conditions: for Muscimol: stimulation: stimulation instead of displacement
# [5] = tested on: picrotoxin-binding site of the GABA-A receptor; experiment: Displacement of 35S-TBPS from brain membranes; parameters: species or system rats
# [6] = tested on: benzodiazepine-binding site of the GABA-A receptor; experiment: Displacement of tritiated flunitrazepam from brain membranes
smiles,measurement,setting,value
"COc1cc2c(cc1OC)[C@H]([C@@H]1CCC(=O)O1)NCC2 (racemic) [Compound 27b, (±)-Threo-6,7-dimethoxy-1-(2,3,4,5-tetrahydro-5-oxo-2-furyl)-1,2,3,4-tetrahydroisoquinoline]",% stimulation of the GABA currents,[1]; 200 μM compound,200 μM = −6%
same,Inhibition of the tritiated ligands % Flu (100 μM),[2]; tissue not stated,negligible
COc1cc2c(cc1OC)C(C1CCC(=O)O1)N(C)CC2 (racemic) [Compound 28],% stimulation of the GABA currents,[1]; 200 μM compound,200 μM = +2%
same,inhibition at 100 µM,[2]; tissue not stated,50%
same,Ro15-4513 displacement,[3],Ro15-4513 displacement 100 μM = 50%
COc1cc2c(cc1OC)[C@H]([C@@H]1C=C(C)C(=O)O1)N(C)CC2 (racemic) [Compound 30b],% stimulation of the GABA currents (100 μM),[1],−10%
same,Inhibition of the tritiated ligands % Flu (100 μM),[2]; tissue not stated,negligible
"COc1cc2c(cc1OC)[C@H]([C@@H]1C=CC(=O)O1)N(C(=O)OCc1ccccc1)CC2 (racemic) [Compound 32b, (±)-(1R,2′S)-1-(2,5-Dihydro-5-oxo-2-furyl)-2-N-benzyloxycarbonyl-6,7-dimethoxy-1,2,3,4-tetrahydroisoquinoline]",Displacement of muscimol,[4]; concentration not given,Displacement of muscimol = 0%
COc1cc2c(cc1OC)C(C1C=CC(=O)O1)NCC2 (racemic) [Compound 42],% stimulation of the GABA currents,[1]; 0.1 μM compound,0%
same,% stimulation of the GABA currents (100 μM),[1],−45 ± 6%
same,inhibition at 10 µM,"[2]; 10 μM, tissue not stated, read-out: Inhibition of the tritiated ligands % Flu",0%
same,inhibition at 100 µM,[2]; tissue not stated,30%
same,Displacement of muscimol,[4]; 10 μM,0%
same,Displacement of muscimol,[4]; 100 μM,20%
CC1=C[C@@H]([C@H]2c3cc4c(cc3CCN2C)OCO4)OC1=O (racemic) [Compound 43],Inhibition of the tritiated ligands % TBPS,[5]; 10 μM,10%
same,% stimulation of the GABA currents (100 μM),[1],−7 ± 2%
same,inhibition at 100 µM,[2]; tissue not stated,~20%
same,Displacement of muscimol,[4]; 0.5 μM,30%
same,Displacement of muscimol,[4]; 10 μM,45%
same,Displacement of muscimol,[4]; 100 μM,50%
O=C1C=CC(C2c3cc4c(cc3CCN2C(=O)OCc2ccccc2)OCO4)O1 (racemic) [Compound 44],Inhibition of the tritiated ligands % TBPS,[5]; 0.5 μM,0%
same,Inhibition of the tritiated ligands % TBPS,[5]; 10 μM,25%
same,% stimulation of the GABA currents,[1]; 0.1 μM compound,0%
same,% stimulation of the GABA currents,[1]; 50 μM compound,+215 ± 16%
same,Inhibition of the tritiated ligands % Flu,"[2]; 0.5 μM, tissue not stated",< 5%
same,Inhibition of the tritiated ligands % Flu,"[2]; 10 μM, tissue not stated",20%
same,Inhibition of the tritiated ligands % Flu (100 μM),[2]; tissue not stated,45%
same,Displacement of muscimol,[4]; 0.5 μM,10%
same,Displacement of muscimol,[4]; 10 μM,0%
same,Muscimol: stimulation,[4]; 100 μM,10%
COc1cc2c(cc1OC)C(C1C=C(C)C(=O)O1)N(C(=O)OCc1ccccc1)CC2 (racemic) [Compound 46],% stimulation of the GABA currents,[1]; 0.1 μM compound,0%
same,% stimulation of the GABA currents (100 μM),[1],24 ± 5%
same,Inhibition of the tritiated ligands % Flu (100 μM),[2]; tissue not stated,0%
same,Displacement of muscimol,[4]; 100 μM,100 μM = 0%
COc1cc2c(cc1OC)C(C1C=C(C)C(=O)O1)N(C(=O)OCc1ccccc1)CC2 (racemic) [Compound 47],% stimulation of the GABA currents,[1]; 0.1 μM compound,0%
same,% stimulation of the GABA currents (100 μM),[1],60 ± 26%
same,Inhibition of the tritiated ligands % Flu (100 μM),[2]; tissue not stated,10%
same,Displacement of muscimol,[4]; 100 μM,100 μM = 0%
"COc1cc2c(cc1OC)C(C1CCC(=O)O1)N(C(=O)OCc1ccccc1)CC2 (racemic) [Compound 48, (±)-(1R,2′R)-2-N-Benzyloxycarbonyl-6,7-dimethoxy-1-(2,3,4,5-tetrahydro-5-oxo-2-furyl)-1,2,3,4-tetrahydroisoquinoline]",% stimulation of the GABA currents,[1]; 0.1 μM compound,0%
same,% stimulation of the GABA currents (100 μM),[1],+159 ± 31%
same,% stimulation of the GABA currents (100 μM),[1]; listed as (+/−) 48,+159%
same,inhibition at 100 µM,[2]; tissue not stated,35%
COc1cc2c(cc1OC)[C@H]([C@@H]1CCC(=O)O1)N(C(=O)OCc1ccccc1)CC2 (racemic) [Compound 49],Inhibition of the tritiated ligands % TBPS,[5]; 10 μM,0%
same,% stimulation of the GABA currents,[1]; 0.1 μM compound,0%
same,% stimulation of the GABA currents (100 μM),[1],+67 ± 9%
same,Inhibition of the tritiated ligands % Flu (100 μM),[2]; tissue not stated,30%
same,Displacement of muscimol,[4]; 100 μM,100 μM = 0%
O=C1C=CC(C2c3ccccc3CCN2C(=O)OCc2ccccc2)O1 (racemic) [Compound 50],Inhibition of the tritiated ligands % TBPS,[5]; 0.5 μM,5%
same,Inhibition of the tritiated ligands % TBPS,[5]; 10 μM,30%
same,% stimulation of the GABA currents,[1]; 0.1 μM compound,+26 ± 6%
same,% stimulation of the GABA currents (100 μM),[1],+281 ± 35%
same,blockade of the stimulation by flumazenil (in words),[1]; printed after the 0.1 μM value,completely blocked by flumazenil
same,Inhibition of the tritiated ligands % Flu,"[2]; 0.5 μM, tissue not stated",55%
same,Inhibition of the tritiated ligands % Flu,"[2]; 10 μM, tissue not stated",90%
same,Inhibition of the tritiated ligands % Flu (100 μM),[2]; tissue not stated,100%
same,Displacement of muscimol,[4]; 100 μM,100 μM = 0%
O=C1C=CC(C2c3ccccc3CCN2C(=O)OCc2ccccc2)O1 (racemic) [Compound 51],Inhibition of the tritiated ligands % TBPS,[5]; 0.5 μM,0%
same,Inhibition of the tritiated ligands % TBPS,[5]; 10 μM,20%
same,% stimulation of the GABA currents,[1]; 0.1 μM compound,0%
same,% stimulation of the GABA currents (100 μM),[1],+225 ± 68%
same,Inhibition of the tritiated ligands % Flu,"[2]; 0.5 μM, tissue not stated",0%
same,Inhibition of the tritiated ligands % Flu,"[2]; 10 μM, tissue not stated",50%
same,Inhibition of the tritiated ligands % Flu (100 μM),[2]; tissue not stated,85%
same,Displacement of muscimol,[4]; 100 μM,100 μM = 0%
O=C1C=CC(C2c3ccccc3CCN2C(=O)Cc2ccccc2)O1 (racemic) [Compound 55],% stimulation of the GABA currents,[1]; 0.1 μM compound,0%
same,% stimulation of the GABA currents (100 μM),[1],+33 ± 4%
same,Inhibition of the tritiated ligands % Flu,"[6]; 0.5 μM, cerebellum",30%
same,Inhibition of the tritiated ligands % Flu,"[6]; 0.5 μM, cortex",20%
same,Inhibition of the tritiated ligands % Flu,"[6]; 10 μM, cerebellum",80%
same,Inhibition of the tritiated ligands % Flu,"[6]; 10 μM, cortex",70%
same,Inhibition of the tritiated ligands % Flu (100 μM),[2]; tissue not stated,95%
same,Displacement of muscimol,[4]; 100 μM,100 μM = 0%
O=C1C=CC(C2c3ccccc3CCN2C(=O)Cc2ccccc2)O1 (racemic) [Compound 56],block of the stimulation caused by 20 μM of 164B,[1]; 100 μM,blocks the stimulation caused by 20 μM of 164B
same,% stimulation of the GABA currents (100 μM),[1],+10 ± 17%
same,Inhibition of the tritiated ligands % Flu,"[2]; 0.5 μM, cerebellum",30%
same,Inhibition of the tritiated ligands % Flu,"[2]; 0.5 μM, cortex",20%
same,Inhibition of the tritiated ligands % Flu,"[2]; 10 μM, cerebellum",80%
same,Inhibition of the tritiated ligands % Flu,"[2]; 10 μM, cortex",70%
same,Inhibition of the tritiated ligands % Flu (100 μM),[2]; cerebellum,85%
same,Inhibition of the tritiated ligands % Flu (100 μM),[2]; cortex,90%
same,Displacement of muscimol,[4]; 100 μM,100 μM = 0%
O=C1C=CC(C2c3ccccc3CCN2C(=O)Oc2ccccc2)O1 (racemic) [Compound 57],% stimulation of the GABA currents,[1]; 0.1 μM compound,0%
same,% stimulation of the GABA currents (100 μM),[1],+175 ± 13%
same,Inhibition of the tritiated ligands % Flu,"[2]; 0.5 μM, cerebellum",35%
same,Inhibition of the tritiated ligands % Flu,"[2]; 0.5 μM, cortex",25%
same,Inhibition of the tritiated ligands % Flu,"[2]; 10 μM, cerebellum",90%
same,Inhibition of the tritiated ligands % Flu,"[2]; 10 μM, cortex",75%
same,Inhibition of the tritiated ligands % Flu (100 μM),[2]; cerebellum,90%
same,Inhibition of the tritiated ligands % Flu (100 μM),[2]; cortex,85%
same,Displacement of muscimol,[4]; 10 μM,0%
same,Muscimol: stimulation,[4]; 100 μM,10-20%
O=C1C=CC(C2c3ccccc3CCN2C(=O)Oc2ccccc2)O1 (racemic) [Compound 58],Inhibition of the tritiated ligands % TBPS,[5]; 10 μM,0%
same,% stimulation of the GABA currents,[1]; 0.1 μM compound,0%
same,% stimulation of the GABA currents (100 μM),[1],+159 ± 8%
same,Inhibition of the tritiated ligands % Flu,"[6]; 0.5 μM, tissue not stated",0%
same,Inhibition of the tritiated ligands % Flu,"[6]; 10 μM, tissue not stated",45%
same,Inhibition of the tritiated ligands % Flu (100 μM),[2]; tissue not stated,70%
same,Displacement of muscimol,[4]; 100 μM,100 μM = 0%
O=C1C=CC(C2c3ccccc3CCN2C(=O)c2ccccc2)O1 (racemic) [Compound 60],% stimulation of the GABA currents,[1]; 0.1 μM compound,0%
same,% stimulation of the GABA currents (100 μM),[1],+14 ± 13%
same,Inhibition of the tritiated ligands % Flu,"[2]; 0.5 μM, cerebellum",35%
same,Inhibition of the tritiated ligands % Flu,"[2]; 0.5 μM, cortex",25%
same,Inhibition of the tritiated ligands % Flu,"[2]; 10 μM, cerebellum",90%
same,Inhibition of the tritiated ligands % Flu,"[2]; 10 μM, cortex",80%
same,Inhibition of the tritiated ligands % Flu (100 μM),[2]; tissue not stated,90%
same,Displacement of muscimol,[4]; 100 μM,100 μM = 0%
"Cc1ccc(S(=O)(=O)N2CCc3ccccc3C2[C@H]2CCC(=O)O2)cc1 (mixture of isomers) [Compound 67, (±)-(1R,2′R)-1-(2,3,4,5-Tetrahydro-5-oxo-2-furyl)-2-N-p-toluenesulfonyl-1,2,3,4-tetrahydroisoquinoline]",% stimulation of the GABA currents,[1]; 0.1 μM compound,7 ± 5%
same,% stimulation of the GABA currents (100 μM),[1],+579 ± 106%
same,% stimulation of the GABA currents (100 μM),[1]; listed as (+/−) 67,+579%
same,Inhibition of the tritiated ligands % Flu,"[6]; 0.5 μM, tissue not stated",0%
same,Inhibition of the tritiated ligands % Flu,"[2]; 10 μM, tissue not stated",20%
same,Inhibition of the tritiated ligands % Flu (100 μM),[2]; cerebellum,50%
same,Inhibition of the tritiated ligands % Flu (100 μM),[2]; cortex,30%
same,Muscimol: stimulation,[4]; 100 μM,Muscimol: 5-10% stimulation at 100 μM
Cc1ccc(S(=O)(=O)N2CCc3ccccc3C2C2CCC(=O)N2)cc1 (racemic) [Compound 73],% stimulation of the GABA currents (100 μM),[1],26 ± 8%
"Cc1ccc(S(=O)(=O)N2C=Cc3ccccc3C2[C@H]2CCC(=O)O2)cc1 (mixture of isomers) [Compound 76, (±)-(1R,2′R)-2-N-Tosyl-1-(2,3,4,5-tetrahydro-5-oxo-2-furyl)-1,2-dihydroisoquinoline]",% stimulation of the GABA currents,[1]; 10 μM compound,97 ± 2%
same,% stimulation of the GABA currents (100 μM),[1],+481 ± 116%
same,Inhibition of the tritiated ligands % Flu (100 μM),[2]; tissue not stated,0%
same,Muscimol: stimulation,[4]; 100 μM,20% stimulation at 100 μM
"Cc1ccc(S(=O)(=O)N2CCc3ccccc3C2C2CCC(=O)O2)cc1 (single isomer, unassigned) [Compound 68]",% stimulation of the GABA currents (100 μM),[1],+184 ± 43%
same,% stimulation of the GABA currents (100 μM),[1]; listed as (−) 68,+184%
"Cc1ccc(S(=O)(=O)N2CCc3ccccc3C2C2CCC(=O)O2)cc1 (single isomer, unassigned) [Compound 69]",portion of the stimulatory activity due to a binding site distinct from those for the benzodiazepines,[1],< 70%
same,% stimulation of the GABA currents (100 μM),[1],+859 ± 75%
same,% stimulation of the GABA currents (100 μM),[1]; listed as (−) 69,+859%
same,% of the stimulation inhibited by flumazenil,"[1]; stimulation by 20 μM compound, 1 μM flumazenil",28%
